{
  "source": "patent US12161748B2",
  "about": "“Topical formulations comprising tofacitinib” (TWi Biotechnology, Inc., priority 2018, dated 2024)",
  "key": {"[1]": {"assay": "Solubility study of tofacitinib citrate in various solvents (HPLC)", "type": "physicochemical", "details": "for solubility: thermodynamic from solid", "method": "A solubility study was conducted in the course of formulation development. The suspension was stirred overnight and filtered through 0.22 μm filter. The filtrate was diluted into suitable concentration."}, "[2]": {"assay": "Compatibility study of dissolved tofacitinib citrate with excipients, 60° C. seven days, HPLC", "type": "physicochemical", "details": "1 Week", "text": "The total degradation products in the mixtures were further analyzed by HPLC."}},
  "note": "Where a name gives a salt, the structure may show the parent alone.",
  "data": [
    {"smiles": "C[C@@H]1CCN(C(=O)CC#N)C[C@@H]1N(C)c1ncnc2[nH]ccc12", "note": "[Tofacitinib Citrate, 3-((3R,4R)-4-methyl-3-[methyl-(7H-pyrrolo[2,3-d]pyrimidin-4-yl)-amino]-piperidin-1-yl)-3-oxopropionitrile]", "values": [
      {"measurement": "Solubility Descriptive Term", "setting": "[1]; 0.1N HCl", "result": "Sparingly"},
      {"measurement": "solubility", "setting": "[1]; 0.1N HCl, simulated gastric fluid", "result": 23900, "unit": "µg/mL"},
      {"measurement": "Solubility Descriptive Term", "setting": "[1]; Dimethyl sulfoxide (DMSO)", "result": "Freely soluble"},
      {"measurement": "Solubility Descriptive Term", "setting": "[1]; Dimethyl sulfoxide (DMSO), listed as tofacitinib citrate", "result": "freely soluble"},
      {"measurement": "Solubility Descriptive Term", "setting": "[1]; Ethanol", "result": "Very slightly"},
      {"measurement": "Solubility Descriptive Term", "setting": "[1]; Ethanol, listed as tofacitinib citrate", "result": "very slightly soluble"},
      {"measurement": "Solubility Descriptive Term", "setting": "[1]; H2O", "result": "Slightly soluble"},
      {"measurement": "Solubility Descriptive Term", "setting": "[1]; H2O, listed as tofacitinib citrate", "result": "slightly soluble"},
      {"measurement": "Solubility Descriptive Term", "setting": "[1]; Propylene Glycol (PG)", "result": "Slightly soluble"},
      {"measurement": "Solubility Descriptive Term", "setting": "[1]; Propylene Glycol (PG), listed as tofacitinib citrate", "result": "slightly soluble"},
      {"measurement": "solubility", "setting": "[1]; aqueous buffer, pH 3.0, 50 mM Citrate Buffer", "result": 600, "unit": "µg/mL"},
      {"measurement": "solubility", "setting": "[1]; aqueous buffer, pH 4.5, 50 mM Acetate Buffer", "result": 1810, "unit": "µg/mL"},
      {"measurement": "solubility", "setting": "[1]; aqueous buffer, pH 6.8, 50 mM Phosphate Buffer", "result": 120, "unit": "µg/mL"},
      {"measurement": "solubility", "setting": "[1]; aqueous buffer, pH 7.5, 50 mM Phosphate Buffer", "result": 120, "unit": "µg/mL"},
      {"measurement": "solubility", "setting": "[1]; aqueous buffer, pH 9.0, 50 mM Phosphate Buffer", "result": 120, "unit": "µg/mL"},
      {"measurement": "solubility", "setting": "[1]; aqueous with cosolvent or surfactant or cyclodextrin, pH 4.5, 50 mM Acetate Buffer/PEG300 = 70/30", "result": 3160, "unit": "µg/mL"},
      {"measurement": "solubility", "setting": "[1]; aqueous with cosolvent or surfactant or cyclodextrin, pH 7.5, 50 mM Phosphate Buffer/PEG300 = 70/30", "result": 1590, "unit": "µg/mL"},
      {"measurement": "solubility", "setting": "[1]; dimethyl sulfoxide (DMSO), organic solvent or mixture", "result": "> 100000", "unit": "µg/mL"},
      {"measurement": "solubility", "setting": "[1]; ethanol, organic solvent or mixture", "result": 480, "unit": "µg/mL"},
      {"measurement": "Solubility Descriptive Term", "setting": "[1]; pH 3.0, 50 mM Citrate Buffer", "result": "Very slightly"},
      {"measurement": "Solubility Descriptive Term", "setting": "[1]; pH 4.5, 50 mM Acetate Buffer", "result": "Slightly soluble"},
      {"measurement": "Solubility Descriptive Term", "setting": "[1]; pH 4.5, 50 mM Acetate Buffer/PEG300 = 70/30", "result": "Slightly soluble"},
      {"measurement": "Solubility Descriptive Term", "setting": "[1]; pH 6.8, 50 mM Phosphate Buffer", "result": "Very slightly"},
      {"measurement": "Solubility Descriptive Term", "setting": "[1]; pH 7.5, 50 mM Phosphate Buffer", "result": "Very slightly"},
      {"measurement": "Solubility Descriptive Term", "setting": "[1]; pH 7.5, 50 mM Phosphate Buffer/PEG300 = 70/30", "result": "Slightly soluble"},
      {"measurement": "Solubility Descriptive Term", "setting": "[1]; pH 9.0, 50 mM Phosphate Buffer", "result": "Very slightly"},
      {"measurement": "solubility", "setting": "[1]; propylene glycol (PG), organic solvent or mixture", "result": 1920, "unit": "µg/mL"},
      {"measurement": "solubility", "setting": "[1]; water, H2O", "result": 3000, "unit": "µg/mL"},
      {"measurement": "Total Degradation Products", "setting": "[2]", "result": 0.06, "unit": "%"}
    ]}
  ]
}
